C/C(=C/C(C)=N/c1c(C(C)C)cccc1C(C)C)Nc1c(C(C)C)cccc1C(C)C
solubility (mole fraction)
Conditions	in THF	in ethanol	in methanol	in n-hexane	in toluene
268.15 K	0.101	0.0008	–	0.0374	0.054
273.15 K	0.108	0.0009	–	0.0417	0.061
278.15 K	0.114	0.001	–	0.0464	0.0673
283.15 K	0.122	0.0013	0.0001	0.048	0.078
288.15 K	0.138	0.0015	0.0002	0.0546	0.087
293.15 K	0.15	0.0019	0.0002	0.0609	0.099
298.15 K	0.169	0.0022	0.0003	0.0699	0.108
303.15 K	0.184	0.0025	0.0004	0.078	0.127
308.15 K	0.199	0.003	0.0005	0.0891	0.145
313.15 K	0.223	0.0036	0.0007	0.103	0.151
318.15 K	–	–	0.0008	–	–

— BigSolDB 2.1
